This note sets out measurements from ChEMBL document CHEMBL4483862, “Open-source discovery of chemical leads for next-generation chemoprotective antimalarials” (2018).

The test system of the test is Plasmodium berghei. Briefly: Luciferase/luciferin-expressing antifolate-resistant parasites were used to infect a culture of HepG2 cells that were pre-incubated with compounds. Infected hepatocytes emit light due to the luciferase reaction. Assay results are presented as the percent inhibition of light emission compared to control. […]. Format: functional. To be noted: sporozoite; for IC90: read-out: LUCIFERASE INFECTION ASSAY - IC90.

The mark [1] stands for this setting: read-out: LUCIFERASE INFECTION ASSAY - IC50.

Take `CC(=O)N(C)c1cccc(-c2cc3c(Nc4cccc(C(C)C)c4)nccc3n2C)c1`: the IC90 (usually the point of the concentration-response curve where the effect stands at 90%) was 3.76 µM. In addition, the IC50 (in general, the concentration at which inhibition is half-maximal) (PBLUC_HILL_SLOPE 18.8, PBLUC_R_SQUARED 0.545, read-out: LUCIFERASE INFECTION ASSAY - IC50) amounted to 3.34 µM.

For `CC(C)N(c1ccccc1)c1ccc(NC(=O)Nc2ccccc2)cc1`, the IC90 is 3.58 µM. Also, the IC50 (PBLUC_HILL_SLOPE 27.4, PBLUC_R_SQUARED 0.0577, read-out: LUCIFERASE INFECTION ASSAY - IC50) came out at 3.31 µM.

Regarding `O=C(c1cccc(Cl)c1)c1cnc(Nc2cccc(C(F)(F)F)c2)[nH]1`, the IC90 is > 9.02 µM. Moreover, the IC50 under setting [1] worked out at 5.49 µM.

For the compound `NC(=O)c1cccc(CNc2cnn(CCOc3ccc(Cl)cc3)c(=O)c2Cl)c1`, the IC90 was > 10 µM. Also, under setting [1], the IC50 was 2.11 µM.

On to `CC1(c2ccc(F)cc2)NC(=O)N(Cc2csc(-c3ccc(F)cc3)n2)C1=O` (centres undefined), for which the IC90 is > 10 µM. Further, for the setting “PBLUC_HILL_SLOPE 12.9, PBLUC_R_SQUARED 0.121, read-out: LUCIFERASE INFECTION ASSAY - IC50”, the IC50 was 9.44 µM.

In the case of `O=C(Nc1nonc1-c1cccs1)c1sc2ccccc2c1Cl`, the IC90 came to 3.36 µM. Further, the IC50 (HEPG2TOX_HILL_SLOPE 3.76, HEPG2TOX_R_SQUARED 0.735, PBLUC_HILL_SLOPE 21.7, PBLUC_R_SQUARED 0.795, read-out: LUCIFERASE INFECTION ASSAY - IC50) was 3.04 µM.

Take `Cn1cc(-c2cn3c(-c4ccc(C#N)cc4)cnc3cn2)cn1`: the IC90 was > 11 µM. Further, for the setting “PBLUC_HILL_SLOPE 4.44, PBLUC_R_SQUARED 0.515, read-out: LUCIFERASE INFECTION ASSAY - IC50”, the IC50 stood at 9.55 µM.

Take `CCOc1ncccc1C(=O)N(C)Cc1cn(-c2ccccc2)nc1-c1ccccc1`: the 90% effect concentration (IC90) was determined as 5.34 µM. Further, under setting [1], the half-inhibitory concentration (IC50) came out at 4.36 µM.

Consider `COc1ccc(NS(=O)(=O)c2ccc3oc(Nc4cc(C)on4)nc3c2)cc1`, for which the IC90 was 9.75 µM. For the same compound, for the setting “HEPG2TOX_HILL_SLOPE 5.63, HEPG2TOX_R_SQUARED 0.393, PBLUC_HILL_SLOPE 4.89, PBLUC_R_SQUARED 0.566, read-out: LUCIFERASE INFECTION ASSAY - IC50”, the IC50 stood at 6.22 µM.

Take `Cc1ccc(/C(C#N)=C/c2ccc3c(c2)OCO3)cc1`: the IC90 is > 12.5 µM. For the same compound, the IC50 (HEPG2TOX_HILL_SLOPE 2.41, HEPG2TOX_R_SQUARED 0.881, PBLUC_HILL_SLOPE 2.57, PBLUC_R_SQUARED 0.299, read-out: LUCIFERASE INFECTION ASSAY - IC50) came out at 9.11 µM.

Consider `CCOC(=O)Cc1nn(Cc2nc(-c3ccc4c(c3)C(C)(C)CCC4(C)C)cs2)c(=O)c2ccccc12`, for which the 90% effect concentration (IC90) stood at 2.02 µM. Further, under “FFLUC_HILL_SLOPE 16.2, FFLUC_R_SQUARED 0.167, PBLUC_HILL_SLOPE 1.27, PBLUC_R_SQUARED 0.666, read-out: LUCIFERASE INFECTION ASSAY - IC50”, the IC50 was 0.357 µM.

As to `Cc1cc(C(=O)COC(=O)c2ccc(Cl)cc2N)c(C)n1CC1CCCO1` (centres undefined), the IC90 was > 10 µM. The IC50 under setting [1] was > 10 µM.

Regarding `COc1ccc(-c2cnc3cnc(-c4cccc(C)c4C)cn23)cn1`, the IC90 is > 9.99 µM. Also, the IC50 (PBLUC_HILL_SLOPE 7.63, PBLUC_R_SQUARED 0.171, read-out: LUCIFERASE INFECTION ASSAY - IC50) was 8.65 µM.

For the compound `CCn1c(SCc2nc3ccccc3c(=O)n2CC(N)=O)nnc1C1CC1`, the IC90 is > 10 µM. Further, the IC50 under setting [1] is > 10 µM.

For `O=C(NC1CCCC1)c1ccc(-c2cn3c(-c4ccc(Cl)cc4)cnc3cn2)cc1`, the IC90 was 3.49 µM. Moreover, for the setting “HEPG2TOX_HILL_SLOPE 3.94, HEPG2TOX_R_SQUARED 0.381, PBLUC_HILL_SLOPE 3.66, PBLUC_R_SQUARED 0.738, read-out: LUCIFERASE INFECTION ASSAY - IC50”, the IC50 was 1.91 µM.

As to `COc1ccc(OC)c(CCNc2nc3cnc(-c4cccs4)cc3n2C)c1`, the IC90 was found to be 3.85 µM. Where the note is “HEPG2TOX_HILL_SLOPE 3.25, HEPG2TOX_R_SQUARED 0.886, PBLUC_HILL_SLOPE 11.1, PBLUC_R_SQUARED 0.592, read-out: LUCIFERASE INFECTION ASSAY - IC50”, the IC50 is 3.16 µM.

Consider `O=C(Nc1nc(CN2CCCC2)cs1)c1ccc(-c2ccccc2)cc1`, for which the IC90 was > 10 µM. Moreover, the half-maximal inhibitory concentration (IC50) (HEPG2TOX_HILL_SLOPE 2.9, HEPG2TOX_R_SQUARED 0.919, read-out: LUCIFERASE INFECTION ASSAY - IC50) was > 10 µM.

Turning to `CCSc1ccc(-c2cc(NC=O)c3ncc(-c4cccc(C(=O)NCCN(C)C)c4)n3c2)cc1`, the IC90 was > 6.77 µM. Further, the IC50 under setting [1] was > 6.77 µM.

For `Cc1nc(-c2cccc(NC(=O)c3ccc(OC(F)F)cc3)c2)[nH]c1C`, the IC90 is 2.68 µM. Further, the IC50 (PBLUC_HILL_SLOPE 207, PBLUC_R_SQUARED 0.671, read-out: LUCIFERASE INFECTION ASSAY - IC50) was 2.66 µM.

For the compound `Cc1ccc(NC(=O)CSc2ccc(Nc3ccc(C)cc3)nn2)cc1`, the IC90 is > 9.05 µM. In addition, under setting [1], the half-maximal inhibitory concentration (IC50) was > 9.05 µM.

As for `CC(OC(=O)c1cccnc1N)C(=O)Nc1ccc2ccccc2c1` (centres undefined), the 90% effect concentration (IC90) was > 10 µM. For the same compound, the concentration for half-maximal inhibition (IC50) under setting [1] was > 10 µM.

On to `CC(=O)NCc1ccc(-c2csc(NC(=O)c3cc4cnn(C(C)C)c4nc3C)n2)s1`, for which the IC90 is > 10 µM. Also, for the setting “HEPG2TOX_HILL_SLOPE 7.15, HEPG2TOX_R_SQUARED 0.462, PBLUC_HILL_SLOPE 31.4, PBLUC_R_SQUARED 0.13, read-out: LUCIFERASE INFECTION ASSAY - IC50”, the 50% inhibitory concentration (IC50) stood at 9.38 µM.

For `Cc1ccc(NC(=O)Cn2ccccc2=O)cc1S(=O)(=O)N1CCCCC1`, the IC90 was > 10 µM. Besides, the IC50 (PBLUC_HILL_SLOPE 1.99, PBLUC_R_SQUARED 0.304, read-out: LUCIFERASE INFECTION ASSAY - IC50) came out at 5.37 µM.

For the compound `CC(C)c1ccc(-n2c(-c3ccccc3)c[n+]3c2CCc2ccccc2-3)cc1`, the IC90 came out at 1.23 µM. Also, for the setting “HEPG2TOX_HILL_SLOPE 1.23, HEPG2TOX_R_SQUARED 0.988, PBLUC_HILL_SLOPE 3.39, PBLUC_R_SQUARED 0.644, read-out: LUCIFERASE INFECTION ASSAY - IC50”, the IC50 came out at 0.642 µM.

As for `CCCCCCCCCONC(=O)Nc1ccc([N+](=O)[O-])cc1`, the IC90 was > 10 µM. Further, where the note is “FFLUC_HILL_SLOPE 17.3, FFLUC_R_SQUARED 0.0693, PBLUC_HILL_SLOPE 3, PBLUC_R_SQUARED 0.451, read-out: LUCIFERASE INFECTION ASSAY - IC50”, the IC50 was 6.31 µM.

For `O=C1/C(=C2/NC=C(c3ccc(Cl)cc3)O2)Sc2ccccc21`, the IC90 was > 10 µM. Moreover, the IC50 (HEPG2TOX_HILL_SLOPE 0.513, HEPG2TOX_R_SQUARED 0.665, PBLUC_HILL_SLOPE 15.6, PBLUC_R_SQUARED 0.39, read-out: LUCIFERASE INFECTION ASSAY - IC50) was found to be 9.58 µM.

Regarding `CC(C)(C)NC(=S)N/N=C/c1cc(I)cc(I)c1O`, the 90% effect concentration (IC90) amounted to 4.23 µM. The IC50 (HEPG2TOX_HILL_SLOPE 8.65, HEPG2TOX_R_SQUARED 0.588, PBLUC_HILL_SLOPE 9.82, PBLUC_R_SQUARED 0.5, read-out: LUCIFERASE INFECTION ASSAY - IC50) is 3.38 µM.
